Laboratory results reported in US20250313548A1 (Actio Biosciences, Inc., priority 2023, published 2025).

Biological target: human, KCNT1 (Homo sapiens (Human), UniProt Q5JUK3)
Assay: FLIPR Tl/K Flux Assay
Type: cell-based
Conditions: HEK293 cells stably expressing human KCNT1; Tl+ flux stimulated with EC80 of agonist Loxapine
Method: HEK293 cells stably expressing human, KCNT1 were cultured in DMEM, 10% FBS, 100 U/mL penicillin-streptomycin and […] puromycin for selection purposes. One day before the assay, cells were detached using TrypLE™ Express and counted using a cell counter. Only cells with >85% viability were used for the assay. […] The cells were incubated overnight at 37° C., 5% (v/v) CO2.
On the day of the assay, the reagents were prepared following the FLIPR® Potassium Assay Kit manual: prepare 2× dye solution, dilute the dye with assay buffer (20 mM HEPES in 1× HBSS, PH7.4), addition of probenecid to a final concentration of 5 mM, and vortexed vigorously for 1-2 minutes. The cell plate was flicked to remove medium and tapped on paper towels to remove excess media. […] The cell plate was moved to a plate shaker, agitated at 600 rpm for two minutes, and then incubated at 25° C. for one hour.
The compounds were prepared in DMSO and transferred to a 384-well compound plate (PP, low binding), referred to as a source plate. Reference agonist (300 nM) compound and test inhibitor (10 mM) compounds were added to the compound plate and a 4-fold serial dilution was performed in DMSO. Using an ECHO dispenser, compounds were dispensed at 90 nL/well from the source plate to a 384-well compound plate (PP, low binding). After the dispensing was complete, 30 µL/well assay buffer was added to the compound plate and mixed for two minutes on a plate shaker. The cell plate, compound plate, and tips were loaded into the FLIPR instrument, and a transfer of 10 μl of 3× compound to the cell plate was initiated. The treated cell plate was kept at in the dark at 25° C. for 30 minutes. Chloride-free stimulation buffer containing 4× 2 mM Tl+ and 4×EC80 of agonist Loxapine was loaded into a 384-well compound plate (PP, low binding). After the 30-minute incubation, the cell plate, compound plate containing stimulation buffer, and FLIPR tips were loaded into the FLIPR instrument. After a baseline read, the FLIPR initiates a transfer of 10 μL of stimulation buffer containing Loxapine to the cell plate. The plate was read for 160 sec with 1 second interval reads to obtain the data.
The normalized fluorescence reading (RFU) was calculated as shown follow, while Fmax and Fmin stand for maximum and minimum of signal during defined time window. The IC50 was calculated by fitting % inhibition against log of compound concentrations with Hill equation using XLfit.

Chain of human, KCNT1 (Q5JUK3 whole entry): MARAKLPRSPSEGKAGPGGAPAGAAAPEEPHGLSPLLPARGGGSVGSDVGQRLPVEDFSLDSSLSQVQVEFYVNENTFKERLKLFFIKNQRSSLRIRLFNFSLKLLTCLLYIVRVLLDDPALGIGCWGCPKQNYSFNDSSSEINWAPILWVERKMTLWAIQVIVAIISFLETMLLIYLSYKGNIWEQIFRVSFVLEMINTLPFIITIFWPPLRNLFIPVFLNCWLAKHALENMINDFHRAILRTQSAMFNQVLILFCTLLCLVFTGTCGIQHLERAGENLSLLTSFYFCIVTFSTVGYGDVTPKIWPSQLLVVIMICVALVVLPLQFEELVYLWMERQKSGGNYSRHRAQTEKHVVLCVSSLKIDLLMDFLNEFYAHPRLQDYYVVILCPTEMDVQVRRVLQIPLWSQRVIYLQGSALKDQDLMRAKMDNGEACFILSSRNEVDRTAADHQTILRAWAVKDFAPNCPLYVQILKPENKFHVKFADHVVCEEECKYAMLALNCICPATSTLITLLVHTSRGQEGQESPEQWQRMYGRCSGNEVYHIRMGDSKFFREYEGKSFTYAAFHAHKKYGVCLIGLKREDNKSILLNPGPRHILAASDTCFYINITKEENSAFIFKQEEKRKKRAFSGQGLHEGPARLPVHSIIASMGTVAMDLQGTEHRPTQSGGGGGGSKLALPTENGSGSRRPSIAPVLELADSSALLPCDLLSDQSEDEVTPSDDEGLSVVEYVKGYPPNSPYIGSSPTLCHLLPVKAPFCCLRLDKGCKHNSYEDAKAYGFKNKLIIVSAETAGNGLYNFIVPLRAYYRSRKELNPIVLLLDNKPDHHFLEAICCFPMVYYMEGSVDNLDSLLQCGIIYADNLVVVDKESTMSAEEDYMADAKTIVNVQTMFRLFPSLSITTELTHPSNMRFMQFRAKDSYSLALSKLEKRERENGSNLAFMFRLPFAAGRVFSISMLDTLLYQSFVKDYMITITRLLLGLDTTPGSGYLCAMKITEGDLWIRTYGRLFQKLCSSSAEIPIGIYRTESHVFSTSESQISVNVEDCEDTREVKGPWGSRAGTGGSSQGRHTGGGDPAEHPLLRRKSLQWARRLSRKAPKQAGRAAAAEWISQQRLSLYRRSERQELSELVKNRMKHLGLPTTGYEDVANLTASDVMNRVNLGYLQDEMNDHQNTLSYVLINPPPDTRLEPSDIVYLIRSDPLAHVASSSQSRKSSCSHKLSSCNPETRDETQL

Structure (SMILES)	IC50 [nM]
Cn1nc(C(F)(F)F)cc1C(=O)N[C@@H]1CCc2nn(-c3ccnc(C(F)(F)F)c3)cc21 [Compound I-1b, (R)-1-Methyl-3-(trifluoromethyl)-N-(2-(2-(trifluoromethyl)pyridin-4-yl)-2,4,5,6-tetrahydrocyclopenta[c]pyrazol-4-yl)-1H-pyrazole-5-carboxamide]	> 1000
CN(C(=O)c1cc(C(F)(F)F)nn1C)[C@H]1CCCc2nn(-c3ccnc(C(F)(F)F)c3)cc21 [Compound I-37a, (S)—N,1-Dimethyl-3-(trifluoromethyl)-N-(2-(2-(trifluoromethyl)pyridin-4-yl)-4,5,6,7-tetrahydro-2H-indazol-4-yl)-1H-pyrazole-5-carboxamide]	> 1000
Cn1nc(C(F)(F)F)cc1C(=O)N[C@H]1CCCn2nc(-c3cnc(C(F)(F)F)s3)cc21 [Compound I-41a, (S)-1-Methyl-3-(trifluoromethyl)-N-(2-(2-(trifluoromethyl)thiazol-5-yl)-4,5,6,7-tetrahydropyrazolo[1,5-a]pyridin-4-yl)-1H-pyrazole-5-carboxamide]	< 250
Cn1nc(C(F)(F)F)cc1C(=O)N[C@@H]1CCCn2nc(-c3ccnc(C(F)(F)F)c3)cc21 [Compound I-42b, (R)-1-Methyl-3-(trifluoromethyl)-N-(2-(2-(trifluoromethyl)pyridin-4-yl)-4,5,6,7-tetrahydropyrazolo[1,5-a]pyridin-4-yl)-1H-pyrazole-5-carboxamide]	> 1000
Cn1nc(C(F)(F)F)cc1C(=O)NC1CCc2ccc(-c3ccnc(C(F)(F)F)c3)nc21 (stereo not drawn) [Compound I-43]	> 1000
Cc1c(-c2ccnc(C(F)(F)F)c2)nn2c1[C@@H](NC(=O)c1cc(C(F)(F)F)nn1C)CCC2 [Compound I-44a]	< 250
Cn1nc(C(F)(F)F)cc1C(=O)N[C@H]1CCc2cnc(-c3ccnc(C(F)(F)F)c3)nc21 [Compound I-46a, (S)-1-Methyl-3-(trifluoromethyl)-N-(2-(2-(trifluoromethyl)pyridin-4-yl)-6,7-dihydro-5H-cyclopenta[d]pyrimidin-7-yl)-1H-pyrazole-5-carboxamide]	250 to 500
Cn1nc(C(F)(F)F)cc1C(=O)N[C@@H]1CCc2cnc(-c3ccnc(C(F)(F)F)c3)nc21 [Compound I-46b, (R)-1-methyl-3-(trifluoromethyl)-N-(2-(2-(trifluoromethyl)pyridin-4-yl)-6,7-dihydro-5H-cyclopenta[d]pyrimidin-7-yl)-1H-pyrazole-5-carboxamide]	> 1000
Cn1nc(C(F)(F)F)cc1C(=O)NC1(C)CCCc2nn(-c3ccnc(C(F)(F)F)c3)cc21 (stereo not drawn) [Compound I-51]	> 1000
Cn1nc(C(F)(F)F)cc1C(=O)N[C@H]1CCCn2nc(-c3ccnc(C4CC4)c3)cc21 [Compound I-64a]	< 250
Cn1nc(C(F)(F)F)cc1C(=O)N[C@@H]1CCCn2nc(-c3ccnc(C4CC4)c3)cc21 [Compound I-64b]	500 to 1000
O=C(N[C@H]1CCn2nc(-c3ccnc(C4CC4)c3)cc21)c1ccc(C(F)(F)F)nc1 [Compound I-66a]	< 250
Cn1nc(C(F)(F)F)cc1C(=O)N[C@H]1CCn2nc(-c3ccnc(C4CC4)c3)cc21 [Compound I-68a]	< 250
Cn1nc(C(F)(F)F)cc1C(=O)N[C@@H]1CCn2nc(-c3ccnc(C4CC4)c3)cc21 [Compound I-68b]	500 to 1000
CC(C)c1cc(-n2cc3c(n2)CC[C@@H]3NC(=O)c2cc(C(F)(F)F)nn2C)ccn1 [Compound I-70a]	< 250
CC(C)c1cc(-n2cc3c(n2)CC[C@H]3NC(=O)c2cc(C(F)(F)F)nn2C)ccn1 [Compound I-70b]	> 1000
Cn1nc(C(F)(F)F)cc1C(=O)N[C@H]1CCc2nn(-c3ccnc(C4CC4)c3)cc21 [Compound I-71a]	< 250

Results, then the compound that gave them:

IC50 [nM]	Structure (SMILES)
< 250	O=C(N[C@H]1CCCc2nn(-c3ccnc(C(F)(F)F)c3)cc21)c1cc(Cl)cc(C(F)(F)F)c1 [Compound I-2a, (S)-3-Chloro-5-(trifluoromethyl)-N-(2-(2-(trifluoromethyl)pyridin-4-yl)-4,5,6,7-tetrahydro-2H-indazol-4-yl)benzamide]
500 to 1000	Cn1nc(CC#N)cc1C(=O)N[C@H]1CCCc2nn(-c3ccnc(C(F)(F)F)c3)cc21 [Compound I-3a]
< 250	Cn1nc(C(F)(F)F)cc1C(=O)N[C@H]1CCCc2nn(-c3ccnc(C(F)(F)F)c3)cc21 [Compound I-4a, (S)-1-Methyl-3-(trifluoromethyl)-N-(2-(2-(trifluoromethyl)pyridin-4-yl)-4,5,6,7-tetrahydro-2H-indazol-4-yl)-1H-pyrazole-5-carboxamide]
> 1000	Cn1nc(C(F)(F)F)cc1C(=O)N[C@@H]1CCCc2nn(-c3ccnc(C(F)(F)F)c3)cc21 [Compound I-4b, (R)-1-Methyl-3-(trifluoromethyl)-N-(2-(2-(trifluoromethyl)pyridin-4-yl)-4,5,6,7-tetrahydro-2H-indazol-4-yl)-1H-pyrazole-5-carboxamide]
< 250	O=C(N[C@H]1CCCc2nn(-c3ccnc(C4CC4)c3)cc21)c1cc(Cl)cc(C(F)(F)F)c1 [Compound I-5a]
< 250	O=C(N[C@H]1CCCc2nn(-c3ccnc(C(F)(F)F)c3)cc21)c1cc(C(F)(F)F)nn1C1CC1 [Compound I-9a, (S)-1-Cyclopropyl-3-(trifluoromethyl)-N-(2-(2-(trifluoromethyl)pyridin-4-yl)-4,5,6,7-tetrahydro-2H-indazol-4-yl)-1H-pyrazole-5-carboxamide]
> 1000	CCOc1cc(-n2cc3c(n2)CCCC3NC(=O)c2ccccc2)ccn1 (stereo not drawn) [Compound I-27]
< 250	Cn1nc(C(F)(F)F)cc1C(=O)N[C@H]1CCCCc2nn(-c3ccnc(C(F)(F)F)c3)cc21 [Compound I-45a, (S)-1-methyl-3-(trifluoromethyl)-N-(2-(2-(trifluoromethyl)pyridin-4-yl)-2,4,5,6,7,8-hexahydrocyclohepta[c]pyrazol-4-yl)-1H-pyrazole-5-carboxamide]
> 1000	Cn1nc(C(F)(F)F)cc1C(=O)N[C@@H]1CCCCc2nn(-c3ccnc(C(F)(F)F)c3)cc21 [Compound I-45b, (R)-1-methyl-3-(trifluoromethyl)-N-(2-(2-(trifluoromethyl)pyridin-4-yl)-2,4,5,6,7,8-hexahydrocyclohepta[c]pyrazol-4-yl)-1H-pyrazole-5-carboxamide]
< 250	Cn1nc(C(F)(F)F)cc1C(=O)N[C@H]1CCCc2nn(-c3ccnc(C4CC4)c3)cc21 [Compound I-48a]
> 1000	Cn1nc(C(=O)N[C@H]2CCCc3nn(-c4ccnc(C(F)(F)F)c4)cc32)cc1C(C)(F)F [Compound I-49a]
< 250	Cn1nc(C(F)(F)F)nc1C(=O)N[C@H]1CCCc2nn(-c3ccnc(C(F)(F)F)c3)cc21 [Compound I-50a]
> 1000	Cn1nc(C(F)(F)F)cc1CC(=O)N[C@H]1CCCc2nn(-c3ccnc(C(F)(F)F)c3)cc21 [Compound I-53a, (S)-2-(1-Methyl-3-(trifluoromethyl)-1H-pyrazol-5-yl)-N-(2-(2-(trifluoromethyl)pyridin-4-yl)-4,5,6,7-tetrahydro-2H-indazol-4-yl)acetamide]
< 250	Cn1nc(C(F)(F)F)cc1C(=O)N[C@H]1CCCCc2nn(-c3ccnc(C4CC4)c3)cc21 [Compound I-56a]
500 to 1000	Cn1nc(C(F)(F)F)cc1C(=O)N[C@@H]1CCCCc2nn(-c3ccnc(C4CC4)c3)cc21 [Compound I-56b]
< 250	Cc1cccc(C(=O)N[C@H]2CCCCc3nn(-c4ccnc(C5CC5)c4)cc32)c1 [Compound I-58a]
500 to 1000	Cc1cccc(C(=O)N[C@@H]2CCCCc3nn(-c4ccnc(C5CC5)c4)cc32)c1 [Compound I-58b]
< 250	O=C(N[C@H]1CCCCc2nn(-c3ccnc(C4CC4)c3)cc21)c1cccc(C(F)(F)F)c1 [Compound I-60a]
500 to 1000	O=C(N[C@@H]1CCCCc2nn(-c3ccnc(C4CC4)c3)cc21)c1cccc(C(F)(F)F)c1 [Compound I-60b]
< 250	CCc1cc(-n2cc3c(n2)CC[C@@H]3NC(=O)c2cc(C(F)(F)F)nn2C)ccn1 [Compound I-69a]
> 1000	CCc1cc(-n2cc3c(n2)CC[C@H]3NC(=O)c2cc(C(F)(F)F)nn2C)ccn1 [Compound I-69b]
500 to 1000	Cn1nc(C(F)(F)F)cc1C(=O)N[C@@H]1CCc2nn(-c3ccnc(C4CC4)c3)cc21 [Compound I-71b]
< 250	Cn1nc(C(F)(F)F)cc1C(=O)N[C@H]1CCc2nn(-c3ccnc(C4CCC4)c3)cc21 [Compound I-72a]
> 1000	Cn1nc(C(F)(F)F)cc1C(=O)N[C@@H]1CCc2nn(-c3ccnc(C4CCC4)c3)cc21 [Compound I-72b]
< 250	Cn1nc(C(F)(F)F)cc1C(=O)N[C@H]1CCc2nn(-c3ccnc(OC(F)(F)F)c3)cc21 [Compound I-73a]
